From ChEMBL document CHEMBL4613290, “Discovery of Reversible Inhibitors of KDM1A Efficacious in Acute Myeloid Leukemia Models” (ACS Med Chem Lett, 2020)

What was measured:
THP-1 [1] = test: Anticlonogenic activity against human THP1 cells assessed as inhibition of colony formation at 50 nM measured after 13 days relative to control; type: functional; conditions: THP-1, 312 h
THP-1 [2] = test: Anticlonogenic activity against human THP1 cells assessed as inhibition of colony formation at 500 nM measured after 13 days relative to control; type: functional; conditions: THP-1, 312 h
[3] = biological target: Lysine-specific histone demethylase 1A (Homo sapiens, UniProt O60341); test: Inhibition of recombinant human LSD1 expressed in Escherichia coli using biotinylated H3K4me as substrate by TR-FRET assay
[4] = Clearance in CD-1 mouse at 5 mg/kg, iv administered as single dose; type: ADME, organism-based; conditions: in vivo
[5] = Toxicity in non-irradiated mouse injected with APL blast cells assessed as effect on body weight at 60 mg/kg, po administered 5 days per week for 2 weeks starting after 10 days post-injection measured after 1st week of treatment; type: organism-based; conditions: in vivo
[6] = Oral bioavailability in CD-1 mouse at 15 mg/kg administered as single dose; type: ADME, organism-based; conditions: in vivo
[7] = Toxicity in sub-lethal irradiated C57BL6JCRL mouse xenografted with human MLL-AF9 cells assessed as effect on body weight at 15 to 30 mg/kg, po administered 5 days per week for 2 weeks starting after 10 days post-injection; type: organism-based; conditions: in vivo
[8] = Antitumor activity against mouse APL blast injected in non-irradiated mouse assessed as increase in mouse survival at 30 mg/kg, po administered 5 days per week for 2 weeks starting after 10 days post-injection by Kaplan-Meier plot analysis relative to control; type: functional
[9] = Antitumor activity against mouse APL blast injected in non-irradiated mouse assessed as increase in mouse survival at 15 mg/kg, po administered 5 days per week for 2 weeks starting after 10 days post-injection by Kaplan-Meier plot analysis relative to control; type: functional
[10] = Volume of distribution at steady state in CD-1 mouse at 5 mg/kg, iv administered as single dose; type: ADME, organism-based; conditions: in vivo, read-out: Vdss
[11] = Antitumor activity against human MLL-AF9 xenografted in sub-lethal irradiated C57BL6JCRL mouse assessed as increase in mouse survival at 30 mg/kg, po administered 5 days per week for 2 weeks starting after 10 days post-injection by Kaplan-Meier plot analysis relative to control; type: functional
[12] = Half life in CD-1 mouse at 5 mg/kg, iv administered as single dose; type: ADME, organism-based; conditions: in vivo
[13] = Cmax in CD-1 mouse at 5 mg/kg, iv administered as single dose; type: ADME, organism-based; parameters: dose 5 mg/kg, route intravenous; conditions: in vivo
Mus musculus = test: Antitumor activity against mouse APL blast injected in non-irradiated po dosed mouse assessed as increase in mouse survival administered 5 days per week for 2 weeks starting after 10 days post-injection by Kaplan-Meier plot analysis relative to control; type: functional, organism-based
[14] = AUC (0 to infinity) in CD-1 mouse at 5 mg/kg, iv administered as single dose; type: ADME, organism-based; parameters: dose 5 mg/kg, time infinity, route intravenous; conditions: in vivo
[15] = Tmax in CD-1 mouse at 15 mg/kg, po administered as single dose; type: ADME, organism-based; conditions: in vivo
[16] = Antitumor activity against human MLL-AF9 xenografted in sub-lethal irradiated C57BL6JCRL mouse assessed as increase in mouse survival at 15 mg/kg, po administered 5 days per week for 2 weeks starting after 10 days post-injection by Kaplan-Meier plot analysis relative to control; type: functional
[17] = AUC (0 to infinity) in CD-1 mouse at 15 mg/kg, po administered as single dose; type: ADME, organism-based; parameters: dose 15 mg/kg, time infinity, route oral; conditions: in vivo
[18] = Cmax in CD-1 mouse at 15 mg/kg, po administered as single dose; type: ADME, organism-based; parameters: dose 15 mg/kg, route oral; conditions: in vivo
[19] = Toxicity in non-irradiated mouse injected with APL blast cells assessed as effect on body weight at 15 and 30 mg/kg, po administered 5 days per week for 2 weeks starting after 10 days post-injection; type: organism-based; conditions: in vivo

| SMILES | IC50 [3] [µM] | inhibition at 0.05 µM (THP-1 [1]) [%] | inhibition at 0.5 µM (THP-1 [2]) [%] | further results |
| --- | --- | --- | --- | --- |
| CCc1cn(CCOc2ccc(OC3CCNCC3)cc2)c(-c2cc3sccc3n2C)n1 |  | 27.6 | 72.3 |  |
| CCCc1cn(CCCc2ccc(OC3CCCNCC3)cc2)c(-c2cc3sccc3n2C)n1 (stereo not given) |  | 46.6 | 64.2 |  |
| Cn1c(-c2nc(C3CCC3)cn2CCCc2ccc(OC3CCNCC3)cc2)cc2sccc21 |  | 38.8 | 72.3 | clearance [4]: 37.5 mL/min/kg; Activity [5]: Toxic; bioavailability [6]: 17%; Activity [7]: Non-Toxic; Activity [8]: 55%; Activity [9]: 20%; Vd [10]: 10.2 L/kg; Activity [11]: 70%; half-life [12]: 6 h; Cmax [13]: 2540 nM; Activity (Mus musculus): Dose-dependent effect; AUC(0-inf) [14]: 4.2 µM·h; Tmax [15]: 0.417 h; Activity [16]: 29%; AUC(0-inf) [17]: 2.03 µM·h; Cmax [18]: 320 nM; Activity [19]: Non-Toxic |
| Cn1c(-c2nc(C3CCC3)cn2CCCc2ccc(OC3CCCNCC3)cc2)cc2sccc21 (stereo not given) |  | 40.9 | 74.2 |  |
| Cn1c(-c2nc(C3CCC3)cn2CCOc2ccc(OC3CCNCC3)cc2)cc2sccc21 |  | 33 | 73.3 |  |
| CCc1cn(CCCc2ccc(OC3CCNCC3)cc2)c(-c2cc3sccc3n2C)n1 |  | 33.3 | 61.4 |  |

Second part, led by results:

| IC50 [3] [µM] | SMILES | inhibition at 0.05 µM (THP-1 [1]) [%] | inhibition at 0.5 µM (THP-1 [2]) [%] | further results |
| --- | --- | --- | --- | --- |
| > 100 | Cn1c(-c2nc3ccccc3[nH]2)cc2sccc21 |  |  |  |
| > 100 | Cn1c(-c2nnc(-c3ccccc3)[nH]2)cc2sccc21 |  |  |  |
| > 100 | Cn1c(-c2nnc(-c3ccccc3)o2)cc2sccc21 |  |  |  |
| > 100 | Cn1c(C(=O)Cc2ccccc2)cc2sccc21 |  |  |  |
| > 100 | Cn1c(-c2ncc(-c3ccccc3)o2)cc2sccc21 |  |  |  |
| > 100 | Cn1c(NC(=O)c2ccccc2)cc2sccc21 |  |  |  |
